In patent publication US12441767B2 (priority 2020, dated 2025):
Entries after “also recorded” stand apart in the source; their conditions may differ. Read-outs that look alike come from different tables or passages of the source. Ends that are not written are not given here.

What was measured:
[1] = as reported in the literature; cited from earlier work
p-Erk1/2 = format: cell-based, human
human ES cells [2] = assay: Survival / proliferation of human ES cells (cell number by flow cytometry); format: cell-based; settings: E8 culture medium + peptide vs E8 culture medium; 24 h; P13 final concentration 200 μM; one-way ANOVA
p-Smad2 = format: cell-based, human
human ES cells [3] = assay: Morphology (colony formation) of human ES cells after five serial passages; format: cell-based
Description: Two groups were prepared, with four different culture media (E6, E6+TGFβ1, E6+FGF2 and E8) in each group, and the peptide P13 was added to the 4 culture media in group 1. A total of eight different culture media were prepared.
The human ES cells were serially passaged five times under eight different conditions to detect the differences of morphologies and pluripotency markers. Please refer to FIG. 2a for the morphological difference results observed after five passages.
On the basis of the preliminary results, three groups were prepared, with four different culture media (E6, E6+TGFβ1, E6+FGF2 and E8) in each group, the peptide M6 was added to the four culture media in group 1, respectively, and the P13 was added in another group as the control. In this way, a total of twelve different culture media were prepared.
The human ES cells were serially passaged five times under 12 different conditions to detect the differences of morphologies and pluripotency markers. Please refer to FIG. 3a for the morphological difference results obtained after five passages (in the figure, the samples from left to right were E6, E6+P13, E6+TGFβ1, E6+TGFβ1+P13, E6+FGF2, E6+FGF2+P13, E8 and E8+P13).

OCT4, SOX2 and NANOG = assay: qPCR of self-renewal markers in human ES cells after five passages; format: cell-based; settings: for expression levels of SOX2 and NANOG: one-way ANOVA ***p<0.001
Excerpt: The self-renewal markers of the human ES cells were detected by using a quantitative polymerase chain reaction (qPCR) method.
The differential expressions of mRNAs of OCT4, SOX2 and NANOG were detected under the culture conditions of the above eight different culture media. Please refer to FIG. 2b for the detection results.
The self-renewal markers of the human ES cells were detected by using qPCR assay.
The differential expressions of mRNAs of OCT4, SOX2 and NANOG were detected under 12 different conditions. Please refer to FIG. 3b for the detection results (in the figure, the samples from left to right were E6, E6+P13, E6+M6, E6+TGFβ1, E6+TGFβ1+P13, E6+TGFβ1+M6, E6+FGF2, E6+FGF2+P13, E6+FGF2+M6, E8, E8+P13 and E8+M6).

human ES cells [4] = assay: Cell-penetrating ability of FITC-labeled peptides, confocal microscopy; format: cell-based; settings: 24 h
Description: The human ES cells were treated with FITC-labeled P13 and M6 for 24 h, respectively, and the positions of the peptides were confirmed under a confocal microscope by immunostaining with nuclear dye combined with cytoplasmic membrane dye.
Immunostaining of human ES cells treated with the fluorescently labeled P13/M6: Human ES cells were cultured on a sterile cover slide, and a 12-well plate was coated with matrix gel at a concentration of 1 mg/ml for 1-2 h. After 24 h, the cells were washed with a DMEM-F12 culture medium, the E8 culture medium was used for replacement, and the cells were treated with the fluorescently labeled peptide for 24 h. Then, the cell membranes were stained by using the CellMask™ crimson plasma membrane (Thermo Fisher), and incubation was performed at 37° C. for 10 min. The staining solution was removed, 200 μL of 4.0% formaldehyde was added to the culture medium, and incubation was performed at 37° C. for 10 min. The culture medium was then removed. The cells were washed with 1×PBS three times and incubated with 10 μl of DAPI (a DNA staining agent) and a mounting medium for one minute, and the cover slide was mounted and sealed with nail polish to prevent drying. The samples were imaged with a Carl Zeiss confocal LSM710 microscope.

[5] = E6 culture medium + peptide vs E6 control culture medium

In the case of `N=C(N)NCCC[C@H](N)C(=O)O` [arginine], the “heparin-binding affinity relative to lysine” value [1] is given as 2.5 times.
With “FGF2: growth factor component of the E8 culture medium, 16.4 kDa” the p-Erk1/2 expression (p-Erk1/2; growth factor in E6 culture medium (FIG. 5d lanes 1-2)) was “up-regulated”.
In the case of “Gonearrestide (WCYKLPDRVSIKEKGRCN-NH2; cysteine pairing not given here) [P13]”, the “number of human ES cells that survived” value (human ES cells [2]) is reported as “significantly higher”, the “expression level of p-Erk1/2” value (p-Erk1/2; [5]) is reported as “significantly up-regulated” and the “expression level of p-Erk1/2” value (p-Erk1/2; E6 with P13 and/or FGF2 vs E6+TGFβ1) is reported as “up-regulated”. The “expression level of p-Erk1/2” value (p-Erk1/2; E8 with P13 vs E8) was “not significantly up-regulated”, the “expression level of p-Smad2” value (p-Smad2; [5]) was “significantly up-regulated” and the “expression level of p-Smad2” value (p-Smad2; E6 with P13 and/or TGFβ1 vs E6+FGF2) was “up-regulated”. For the same compound, the “expression level of p-Smad2” value (p-Smad2; E8 with P13 vs E8) was “up-regulated”, the “colony-forming morphology of human ES cells” value (human ES cells [3]; E6+TGFβ + peptide, after five passages, vs E6+TGFβ) was “still maintained their colony morphologies; also recorded: maintained their colony-forming morphologies; also recorded: mixed state of colonies and dispersed cells” and the “morphology of human ES cells” value (human ES cells [3]; peptide added to E6+FGF2, five generations) was “no significant morphological differences; also recorded: no significant difference in their morphologies”. The “morphology of human ES cells” value (human ES cells [3]; peptide added to E8, five generations) was “no significant morphological differences; also recorded: no significant difference in their morphologies”, the “mRNA expression levels of OCT4, SOX2 and NANOG” value (OCT4, SOX2 and NANOG; E6 + peptide in comparison with other conditions, five passages) was “low mRNA expression levels” and the “expression levels of SOX2 and NANOG” value (OCT4, SOX2 and NANOG; E6+FGF2 + peptide vs E6) was “significantly up-regulated”. For the same compound, the “mRNA expression of OCT4, SOX2 and NANOG” value (OCT4, SOX2 and NANOG; E6+TGFβ1 + peptide vs E6+TGFβ1) was “up-regulated”, the “expression levels of SOX2 and NANOG” value (OCT4, SOX2 and NANOG; E8 + peptide vs E6) was “significantly up-regulated” and the “position of FITC-labeled peptide in human ES cells” value (human ES cells [4]; E8, confocal microscope) was “bound to the plasma membranes”. The “cell-penetrating peptide (CPP) property” value (human ES cells [4]; none found in cytoplasm) was “did not belong to the CPP family”.
For “TGFβ1: growth factor component of the E8 culture medium, 25.6 kDa homodimer linked by a disulfide bond”, the p-Erk1/2 expression (p-Erk1/2; E6 with M6 or TGFβ in presence of SB431542 (10 μmol) / A8301 (1.0 μmol)) was “not observed”, the p-Smad2 expression (p-Smad2; E6 with 1.0 μmol LDN189193 treated with TGFβ or M6 vs E6 with 1.0 μmol LDN189193) was “up-regulated” and the p-Smad2 expression (p-Smad2; growth factor in E6 culture medium (FIG. 5d lanes 3-4)) was “up-regulated”.
